In patent US12667584B2, “Adenosine analog and its use in regulating the circadian clock” (NATIONAL INSTITUTE OF BIOLOGICAL SCIENCES, BEIJING, priority 2017, dated 2026):
Where two headings read alike, the source gives them in different places.

Test system: Per2-Luc reporter U2OS cells (D15)
Assay: Circadian phase shift cell assay in D15 cells, 384 well plate, Tecan, with or without pentostatin
Type: cell-based, human
Conditions: for minimal effective concentration: read-out: Cell Assay; for With Pentostadin Cell Assay: pentostatin 5 μg/ml; for amplitude effect, Per2:luc signal versus control / period effect: under the concentration of 100 μM
[1] = Homo sapiens, U2OS, without pentostatin, concentration that shifts the circadian phase
[2] = concentration that shifts the circadian phase
[3] = without pentostatin, concentration that shifts the circadian phase

| SMILES | minimal effective concentration [1] | With Pentostadin Cell Assay [2] | also measured |
| --- | --- | --- | --- |
| Nc1ncnc2c1c(Br)cn2[C@H]1O[C@H](CO)[C@H](O)[C@H]1O | > 500 µM | 50 µM |  |
| Nc1nccc2c1ncn2[C@@H]1O[C@H](CO)C(O)C1O (some centres unmarked) | 50 µM | 50 µM |  |
| Nc1ncnc2c1ncn2[C@@H]1O[C@H](COC(=O)CCCC[C@@H]2SC[C@@H]3NC(=O)N[C@@H]32)C(O)C1OC(=O)CCCC[C@@H]1SC[C@@H]2NC(=O)N[C@@H]21 (some centres unmarked) | > 500 µM | 25 µM |  |
| CNc1nc2c(=O)[nH]c(N)nc2n1[C@@H]1O[C@H](CO)C(O)C1O (some centres unmarked) | 100 µM |  |  |
| Nc1ncnc2c1c(Br)cn2[C@H]1O[C@H](CO)C[C@H]1O | > 500 µM | 200 µM |  |
| [2H]c1nc(N)c2nc([2H])n([C@@H]3O[C@H](CO)[C@H](O)[C@H]3O)c2n1 [NQZ-198] |  |  | amplitude effect, Per2:luc signal versus control: more than two fold of control |
| [N-]=[N+]=NC[C@@H]1CC(O)[C@H](n2cnc3c(N)ncnc32)O1 (some centres unmarked) | 500 µM | 25 µM |  |
| Nc1ncnc2c1ncn2[C@@H]1O[C@@H]2COC2[C@H]1O (some centres unmarked) | > 500 µM | 100 µM |  |
| OC[C@H]1O[C@@H](n2cnc3c(Nc4cccc(O)c4)ncnc32)C(O)C1O (some centres unmarked) | 200 µM |  |  |
| Nc1ncnc2c1ncn2[C@@H]1O[C@H](COP(=O)(O)O)CC1O (some centres unmarked) | 100 µM |  |  |
| OC[C@H]1O[C@@H](n2cnc3c(NC4CC4)ncnc32)C(O)C1O (some centres unmarked) | 100 µM |  |  |
| Nc1ncnc2c1ncn2[C@H]1CC[C@@H](CO)O1 | 200 µM |  |  |
| C=C[C@@H]1CC(O)[C@H](n2cnc3c(N)ncnc32)O1 (some centres unmarked) | 200 µM | 25 µM |  |
| Nc1cc(Cl)nc2c1ncn2[C@@H]1O[C@H](CO)C(O)C1O (some centres unmarked) | > 500 µM | 100 µM |  |
| O=C1N[C@H]2[C@H](CS[C@H]2CCCCC(=O)OC[C@H]2O[C@@H](n3cnc4cc(Cl)c(Cl)cc43)C(O)C2O)N1 (some centres unmarked) | 40 µM |  |  |
| OC[C@H]1O[C@@H](n2cnc3c(NCc4ccccc4)ncnc32)C(O)C1O (some centres unmarked) | 10 µM | 10 µM |  |
| Nc1nccc2c1ncn2[C@@H]1O[C@H](CO)[C@H](O)[C@H]1O | > 500 µM | 100 µM |  |
| CNC(=O)c1cnn(-c2nc(N)c3ncn([C@@H]4O[C@H](CO)C(O)C4O)c3n2)c1 (some centres unmarked) | 100 µM |  |  |
| Nc1ncnc2c1c(Br)cn2[C@@H]1O[C@H](CO)[C@H](O)[C@H]1O [drawing 333] | > 500 µM | 100 µM |  |
| Nc1ncnc2c1c(Br)cn2[C@@H]1O[C@H](CO)C[C@H]1O [NQZ-194] |  |  | amplitude effect, Per2:luc signal versus control: more than two fold of control |
| Nc1ncnc2c1ncn2[C@@H]1O[C@H](COC(=O)CCCC[C@@H]2SC[C@@H]3NC(=O)N[C@@H]32)CC1O (some centres unmarked) [drawing 316] |  |  | minimal effective concentration [3]: 200 µM |
| Nc1ncnc2c1c(Br)cn2[C@@H]1O[C@H](CO)[C@H](O)[C@H]1O [NQZ-168] |  |  | period effect: elongation period effect |
| Nc1ncnc2c1c(F)cn2[C@H]1O[C@H](CO)[C@H](O)[C@H]1O | > 500 µM | 100 µM |  |

| SMILES | minimal effective concentration [1] | With Pentostadin Cell Assay [2] | also measured |
| --- | --- | --- | --- |
| Nc1ncnc2c1c(Br)c(Br)n2[C@@H]1O[C@H](CO)C[C@H]1O | > 500 µM | 100 µM |  |
| Nc1ncnc2c1ncn2[C@@H]1O[C@H]([C@H](O)CO)[C@H](O)[C@H]1O | > 500 µM | 200 µM |  |
| OC[C@H]1O[C@@H](n2cnc3cc(Cl)c(Cl)cc32)C(O)C1O (some centres unmarked) [drawing 289] | 10 µM | 10 µM |  |
| COc1cc2c(N)ncnc2n1[C@@H]1O[C@H](CO)[C@H](O)[C@H]1O | > 500 µM | 100 µM |  |
| Nc1ncnc2c1c(Br)cn2[C@@H]1O[C@H](CO)C[C@H]1O [drawing 349] | > 500 µM | 100 µM |  |
| Nc1ncnc2c1ncn2[C@@H]1O[C@H](CO)[C@H](O)[C@H]1O [NQZ-007, 9-(β-D-xylofuranosyl)-adenine] |  |  | concentration of eliciting 12 h phase shift (potency) (pentostatin containing medium (5 μg/ml)): 0.2 µM; concentration of eliciting 12 h phase shift (potency) (without pentostatin): 25 µM |
| Nc1ncnc2c1ncn2[C@@H]1O[C@H](CO)C2OC21 (some centres unmarked) | 3 µM |  |  |
| Nc1ncnc2c1c(Br)c(Br)n2[C@@H]1O[C@H](CO)[C@H](O)[C@H]1O | > 500 µM | 100 µM |  |
| OC[C@H]1O[C@@H](n2c(F)nc3c(F)nc(F)nc32)[C@H](O)[C@H]1O [NQZ-195] |  |  | period effect: elongation period effect |
| CC1(CCC(=O)O[C@@H]2[C@@H](O)[C@H](n3cnc4c(N)ncnc43)O[C@@H]2COC(=O)CCCC(=O)NCCCOCCOCCOCCCNC(=O)CCCC[C@H]2SC[C@H]3NC(=O)N[C@H]32)N=N1 | > 500 µM | 100 µM |  |
| Nc1nc(N)c2ncn([C@@H]3O[C@H](CO)C(O)C3O)c2n1 (some centres unmarked) | > 500 µM | 100 µM |  |
| O=P(O)(O)OP(=O)(O)OP(=O)(O)OC[C@H]1O[C@@H](n2cnc3c(NCc4ccccc4)ncnc32)[C@H](O)[C@@H]1O | 10 µM |  |  |
| Nc1ncnc2c1cc(Br)n2[C@@H]1O[C@H](CO)[C@H](O)[C@H]1O | > 500 µM | 100 µM |  |
| Nc1ncnc2c1ncn2[C@@H]1O[C@@H]2COP(=O)(O)OC2C1O (some centres unmarked) |  |  | minimal effective concentration (Homo sapiens, U2OS): 200 µM |
| Nc1ncnc2c1ncn2[C@@H]1O[C@H](COC(=O)CCCC[C@@H]2SC[C@@H]3NC(=O)N[C@@H]32)CC1O (some centres unmarked) [drawing 290] |  | 6 µM | minimal effective concentration [3]: >500 µM |
| Nc1ncnc2c1ccn2[C@@H]1O[C@H](CO)CC1O (some centres unmarked) | 200 µM | 25 µM |  |
| Nc1ncnc2c1ncn2[C@@H]1O[C@H](CO)CC1OC(=O)CCCC[C@@H]1SC[C@@H]2NC(=O)N[C@@H]21 (some centres unmarked) | > 500 µM | 1.5 µM |  |
| CCCCCCCC(=O)Nc1ncnc2c1ncn2[C@@H]1O[C@H](CO)[C@H](O)[C@H]1O [NQZ-163] |  |  | amplitude effect, Per2:luc signal versus control: more than two fold of control |
| Nc1ncnc2c1nc(Br)n2[C@@H]1O[C@H](CO)C[C@H]1O | > 500 µM | 100 µM |  |
| Nc1ncnc2c1ncn2[C@@H]1O[C@H](CO)C(O)C1O (some centres unmarked) | 12.5 µM | 0.5 µM |  |
| Nc1ncnc2c1ncn2[C@@H]1O[C@H](C2NN2)CC1O (some centres unmarked) |  | 100 µM | minimal effective concentration (Homo sapiens, U2OS): > 500 µM |
| C#CC(O)C1O[C@@H](n2cnc3c(N)ncnc32)[C@H](O)[C@H]1O (some centres unmarked) | > 500 µM | 100 µM |  |
| Nc1ncnc2c1ncn2[C@@H]1O[C@H](COC(=O)CCCC[C@@H]2SC[C@@H]3NC(=O)N[C@@H]32)C(O)C1O (some centres unmarked) | > 500 µM | 2 µM |  |

| SMILES | minimal effective concentration [1] | With Pentostadin Cell Assay [2] | also measured |
| --- | --- | --- | --- |
| Nc1ncnc2c1ccn2[C@@H]1O[C@H](CO)C(O)C1O (some centres unmarked) [drawing 318] |  | 25 µM |  |
| OC[C@H]1O[C@@H](n2cnc3cc(Cl)c(Cl)cc32)C(O)C1O (some centres unmarked) [drawing 284] |  |  | minimal effective concentration [3]: 10 µM |
| Cc1cccc(Cc2nn(C(C)(C)C)c3ncnc(N)c23)c1 | 10 µM |  |  |
| O=C(CCCC[C@@H]1SC[C@@H]2NC(=O)N[C@@H]21)Nc1ncnc2c1ncn2[C@@H]1O[C@H](CO)CC1O (some centres unmarked) [drawing 292] |  | 25 µM | minimal effective concentration [3]: >500 µM |
| Nc1ncnc2c1cc(Br)n2[C@@H]1O[C@H](CO)C[C@H]1O | > 500 µM | 100 µM |  |
| OC[C@@H]1CC(O)[C@H](n2cnc3cc(Cl)c(Cl)cc32)O1 (some centres unmarked) | 10 µM |  |  |
| O=C(CCCC[C@@H]1SC[C@@H]2NC(=O)N[C@@H]21)Nc1ncnc2c1ncn2[C@@H]1O[C@H](CO)CC1O (some centres unmarked) [drawing 315] |  |  | minimal effective concentration [3]: 200 µM |
| Nc1ncnc2c1ncn2[C@@H]1O[C@H](CO)[C@H](OC(=O)CCCC[C@@H]2SC[C@@H]3NC(=O)N[C@@H]32)[C@H]1O | > 500 µM | 25 µM |  |
| Nc1ncnc2c1ncn2[C@@H]1O[C@H](CO)CC1O (some centres unmarked) | 25 µM | 0.5 µM |  |
| Nc1ncnc2c1nc(Br)n2[C@@H]1O[C@H](CO)[C@H](O)[C@H]1O | > 500 µM | 100 µM |  |
| Nc1ncnc2c1ncn2[C@@H]1O[C@H](COP(=O)(O)OP(=O)(O)OP(=O)(O)O)CC1O (some centres unmarked) | 100 µM |  |  |
| Nc1nc(NC2CC2)c2ncn([C@H]3C=C[C@@H](CO)O3)c2n1 | 400 µM |  |  |
| Nc1ncnc2c1ccn2[C@@H]1O[C@H](CO)C(O)C1O (some centres unmarked) [drawing 303] | 0.3 µM | 0.3 µM |  |
| Nc1nc(F)nc2c1ncn2[C@@H]1O[C@H](CO)C(O)C1O (some centres unmarked) | 50 µM |  |  |
| Nc1nc(F)nc2c1nc(F)n2[C@@H]1O[C@H](CO)[C@H](O)[C@H]1O | > 500 µM | 200 µM |  |
| Nc1ncnc2c1ncn2[C@@H]1O[C@H](COC(=O)CCCC[C@@H]2SC[C@@H]3NC(=O)N[C@@H]32)CC1OC(=O)CCCC[C@@H]1SC[C@@H]2NC(=O)N[C@@H]21 (some centres unmarked) | > 500 µM | 12.5 µM |  |
| Nc1ncnc2c1c(F)cn2[C@@H]1O[C@H](CO)[C@H](O)[C@H]1O | > 500 µM | 100 µM |  |
| Nc1ncnc2c1ccn2[C@@H]1OC[C@@H](O)[C@H](O)[C@H]1O | 100 µM |  |  |
| Nc1ncnc2c1c(F)c(Br)n2[C@@H]1O[C@H](CO)[C@H](O)[C@H]1O | > 500 µM | 100 µM |  |
| Nc1nc2c([nH]c(=S)n2[C@@H]2O[C@H](CO)C(O)C2O)c(=O)[nH]1 (some centres unmarked) | 100 µM |  |  |
| OC[C@H]1O[C@@H](n2cnc3c(Cl)cc(Cl)nc32)C(O)C1O (some centres unmarked) | 100 µM |  |  |
